Like-named read-outs stand apart in the source and are kept apart here.
Columns and labels:
[1] = tested on: Hela cells; assay: MTT cytotoxicity in Hela cells; format: cell-based; conditions: Homo sapiens; Hela cervical cancer, 72 hours
[2] = tested on: MHCC97-L cells; assay: MTT cytotoxicity in MHCC97-L cells; format: cell-based; conditions: MHCC97L; MHCC97-L liver cancer, 72 hours
[3] = tested on: HepG2 cells; assay: MTT cytotoxicity in HepG2 cells; format: cell-based; conditions: Homo sapiens; HepG2 liver cancer, 72 hours
[4] = tested on: SW480 cells; assay: MTT cytotoxicity in SW480 cells; format: cell-based; conditions: Homo sapiens; SW480 colon cancer, 72 hours
[5] = tested on: A549 cells; assay: Cytotoxicity in A549 cells; format: cell-based; conditions: Homo sapiens
[6] = tested on: NCI-H1650 cells; assay: Cytotoxicity in NCI-H1650 cells; format: cell-based; conditions: Homo sapiens
[7] = tested on: CCD-19Lu lung normal fibroblast; assay: Cytotoxicity in lung normal fibroblast CCD-19Lu; format: cell-based; conditions: Homo sapiens
[8] = tested on: A549 cells; assay: Apoptosis by flow cytometry (Annexin V-FITC / propidium iodide); format: cell-based; conditions: 48 hours
Protocol: (§1) The effect of CK and CKD-4 on cell apoptosis and cell death is indicated by A549 cells treated with 60 μM of CK and 20 μM of CKD-4 for 48 hours that are analyzed by flow cytometry. […] Angiogenesis is another hallmark of cancer which plays an important role in metastasis and tumor growth. […] Cancer stem cells, owing to their ability of self-renewal, have become the major reason for relapse of tumor and poor prognosis. The efficacy of CKD-4 in lung cancer patient derived organoid is indicated using CellTiterGlo assay, where three state of the art clinical anti-cancer drugs, carboplatin, cisplatin, and paclitaxel are a positive control. The dosage of these three drugs is sufficient to trigger a 30% inhibition of cell viability. FIG. 6 and FIG. 7 indicated less than 30% suppression of cell viability is observed with treatment of 20 μM CKD-4.

[9] = tested on: MS 1 cells; assay: Tube formation (angiogenesis) on Matrigel; format: cell-based; conditions: 4 hours
Protocol: as §1

[10] = tested on: NCI-H460 xenografts; assay: NCI-H460 xenografts in nude mice; format: in vivo; conditions: 5 mg/kg intravenous once every two days; for Tumor volume: versus solvent control
[11] = target: T1, PRELID1 (Homo sapiens, UniProt Q9Y255); assay: Proteome integral solubility alteration (PISA) in cells; format: cell-based; conditions: in cell
T1 construct: endogenous in cells; host or cells: A549
Excerpt: Two label free chemical proteomics, proteome integral […] alteration assay (PISA) and ProtargetMiner (PTM) are alternative strategies to study CK and CKD-4. PISA is a turbo-charged method development of thermal proteome profiling (TPP) which based on the principle that ligand induced stability of proteins is observed upon a temperature increase. PTM is used to contrast the proteome signature of CK and CKD-4 against the PTM database to reveal their mode of action. FIGS. 9A and 9B provide an overview of the PISA results in cells with CK and CKD-4, where data is shown as a volcano plot with the X-axis as log2 ΔSm of drug over DMSO treatment and the Y-axis as log 10 p-value. In FIGS. 10 and 11 the PTM result of CK and CKD-4 in cells are compared to 9 other anti-cancer drugs in A549 cells in the database and is plotted for OPLS-DA analysis.
(§2) Most probable target candidate proteins are ranked in PISA based on the absolute value of log2 ΔSm of drug relative to DMSO treatment and PTM ranking are based on the log2 fold change of drug over DMSO treatment. The rankings of two experiments are summed to provide a list of candidate drug targets.

[12] = target: T2, PRELID3b (Homo sapiens, UniProt Q9Y3B1); assay: Cellular thermal shift assay by western blotting, PRELID3b; format: cell-based; conditions: A549 cells, one hour
T2 construct: endogenous in cells; host or cells: A549
Protocol: A549 cells were treated with 50 μM of CK or 15 uM of CKD-4 for one hour, where eight lysate aliquots were heated to indicated temperature.
as §2

[13] = target: T1, PRELID1; assay: Cellular thermal shift assay by western blotting, PRELID1; format: cell-based; conditions: A549 cells, one hour
Protocol: A549 cells were treated with 50 μM of CK or 15 μM of CKD-4 for one hour, where eight lysate aliquots were heated to indicated temperature.
as §2

[14] = tested on: cardiolipin in A549 cells; assay: Mitochondrial cardiolipin quantification with cardiolipin probe; format: cell-based; conditions: 24-hour treatment
Protocol: FIG. 15A is a bar chart of the CK and CKD-4 induced apoptosis by quantification of cardiolipin in mitochondrial after treatment with CK or CKD-4 for 24 hours in A549 cells as mean±SD, **, P≤0.01, *, P≤0.05.
(§3) PRELID3b and PRELID1 are PRELI proteins. These proteins and TRIAP1 locate within the inter membrane space responsible for the regulation of phospholipid metabolism. Therefore, a cardiolipin probe is used to measure levels of mitochondrial cardiolipin after drug treatment. […] A decreased level of cardiolipin in PRELI or TRIAP1 depleted cells appears to accelerate the release of cytochrome c, rendering cells vulnerable to apoptosis. […] Cardiolipin is synthesized by a series of steps with phosphatidylglycerol (PG) as the precursor of last step catalyzing by cardiolipin synthase.

[15] = tested on: cytochrome c release in A549 cells; assay: Cytochrome c in cytosol fractions, western blotting; format: cell-based; conditions: for Level of cytochrome c in cytosol: 24-hour treatment; for Cytochrome c release with PG in medium: 24 hours, with PG versus without PG
Excerpt: as §3

[16] = tested on: A549 cells; assay: Cell viability with phosphatidylglycerol (PG) supplement, NBB assay; format: cell-based; conditions: 24 hours, PG supplemented DMEM versus DMEM
Protocol: FIG. 15C is a bar chart of the cell viability of A549 after treatment with 100 μM of CK or 12.5 μM of CKD-4 for 24 hours in DMEM or phosphatidylglycerol (PG) supplemented DMEM as mean±SD, ***P≤0.001.
as §3

[17] = target: T3, PRELID3b-TRIAP1-MBP (Homo sapiens, UniProt Q9Y3B1); assay: Biolayer interferometry with his tag PRELID3b-TRIAP1-MBP; format: binding; conditions: for Kd: steady-state analysis, 1:1
T3 construct: made in house
Excerpt: To validate the docking analysis, biolayer interferometry (BLI) was employed to measure the interaction between PRELID3b and CK or CKD-4. The recombinant protein was purified by co-expression of PRELID3b with a hexa-histidine tag and the p53 regulated protein, TRIAP1 conjugated with maltose binding protein (MBP). The reported crystal structure of RELID3b is in complex with TRIAP1 and they form as a swapped dimer. PRELID3b is intrinsically unstable in the absence of TRIAP1 and easily degraded by mitochondrial protease. Maltose binding protein (MBP) is a necessary component to improve the solubility of the whole protein complex.
(§4) The sensor used is coated with Ni NTA so that proteins with the hexa-histidine tag could be immobilized on the sensor. After immobilization with protein, the sensor was incubated with the compounds at different concentrations in an ascending order. Both the stoichiometry of CK or CKD-4 with PRELID3b is in a 1:1 ratio but the kinetic modes for the two cases are different. […] The result is consistent with the docking analysis showing that the interaction between CKD-4 and PRELID3b is stronger than with CK.

[18] = target: MBP (Escherichia coli, UniProt P0AEX9); assay: Biolayer interferometry with his tag MBP (control); format: binding; conditions: various concentrations
Protocol: as §4

[19] = tested on: NCI-H460 cells; assay: MTT cytotoxicity in NCI-H460 cells
[20] = Solubility; format: physicochemical; conditions: even in dimethyl sulfoxide (DMSO)
[21] = tested on: A549 cells; format: in vitro ADME; conditions: human, 10 μM
Excerpt: To explore the stability of CKD-4, the amount of CK in CKD-4 treated A549 cells was also quantified.

[22] = tested on: lung cancer patient derived organoid; assay: Lung cancer patient derived organoid viability, CellTiterGlo; format: cell-based; conditions: 72 hours
Protocol: as §1

[23] = tested on: NCI-H460 cells
[24] = A549, 24 h, read-out: IC50 24 h
[25] = A549, 48 h, read-out: IC50 48 h
[26] = A549, 72 h, read-out: IC50 72 h
[27] = NCI-H1650, 24 h, read-out: IC50 24 h
[28] = NCI-H1650, 48 h, read-out: IC50 48 h
[29] = NCI-H1650, 72 h, read-out: IC50 72 h
[30] = Homo sapiens, NCI-H460, 24 h, read-out: IC50 24 h
[31] = Homo sapiens, NCI-H460, 48 h, read-out: Cytotoxicity IC50
[32] = Homo sapiens, NCI-H460, 72 h, read-out: IC50 72 h

T3 sequence (Q9Y3B1 whole entry): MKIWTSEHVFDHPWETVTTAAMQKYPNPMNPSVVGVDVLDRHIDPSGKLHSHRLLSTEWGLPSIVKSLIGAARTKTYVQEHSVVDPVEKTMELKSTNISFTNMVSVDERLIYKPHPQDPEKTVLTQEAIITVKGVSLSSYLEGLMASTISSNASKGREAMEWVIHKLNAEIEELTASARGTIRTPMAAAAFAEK
T1 sequence (Q9Y255 whole entry): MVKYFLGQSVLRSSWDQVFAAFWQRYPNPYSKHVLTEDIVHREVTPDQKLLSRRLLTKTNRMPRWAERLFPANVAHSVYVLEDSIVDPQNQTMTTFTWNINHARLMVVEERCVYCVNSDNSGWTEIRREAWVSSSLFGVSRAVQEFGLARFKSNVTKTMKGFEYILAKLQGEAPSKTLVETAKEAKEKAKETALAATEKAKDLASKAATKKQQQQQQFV
T1 sequence (O43715 whole entry partner): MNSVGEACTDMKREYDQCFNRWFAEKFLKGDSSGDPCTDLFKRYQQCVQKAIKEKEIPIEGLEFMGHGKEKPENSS
T2 sequence (Q9Y3B1 whole entry): as the sequence (Q9Y3B1 whole entry) above
T2 sequence (O43715 whole entry partner): as the sequence (O43715 whole entry partner) above

In the case of `CC(C)=CCC[C@](C)(OC1O[C@H](CO)[C@@H](O)[C@H](O)[C@H]1O)C1CC[C@]2(C)C1[C@H](O)CC1[C@@]3(C)CC[C@H](O)C(C)(C)C3CC[C@]12C` (stereo partly drawn) [CK, 20-O-β-(D-glucopyranosyl)-20(S)-protopanaxadiol, reference compound], the IC50 [1] is reported as 36.2 ± 1.2 µM, the IC50 [2] is reported as 49.8 ± 0.3 µM and the IC50 [3] is reported as 43.6 ± 1.6 µM. For the same compound, the IC50 [4] was 46.2 ± 2.1 µM, the IC50 [5, 24] was 67.1 ± 4.6 µM and the IC50 [5, 25] was 64 ± 3.3 µM. The IC50 [5, 26] was 59.1 ± 3.4 µM, the IC50 [6, 27] was 80.7 ± 3.7 µM and the IC50 [6, 28] was 71.3 ± 7.1 µM. For the same compound, the IC50 [6, 29] was 59.3 ± 2.8 µM, the IC50 ([7]; 24 h, read-out: IC50 24 h) was 73.6 ± 3.4 µM and the IC50 ([7]; 48 h, read-out: IC50 48 h) was 63.1 ± 2.7 µM. For the same compound, the IC50 ([7]; 72 h, read-out: IC50 72 h) was 42.3 ± 1.5 µM, the “Percentage of apoptotic cells” value ([8]; A549, 60 μM) was “significant increase in the percentage of apoptotic cells” and the Formation of tube ([9]; 40 μM) was “inhibited”. The Body weight [10] was “No significant change in body weight”, the Tumor volume [10] was “almost no difference” and the “PRELID1 stability in PISA” value [11] was “stabilized”. For the same compound, the “Thermal stability of PRELID3b (CETSA)” value ([12]; 50 μM) was “stabilization”, the “Thermal stability of PRELID1 (CETSA)” value ([13]; 50 μM) was “stabilization” and the “Amount of mitochondrial cardiolipin” value [14] was “decreased significantly”. The “Level of cytochrome c in cytosol” value ([15]; 50 μM) was “dramatically enhanced”, the “Cytochrome c release with PG in medium” value ([15]; 50 μM) was “not observed” and the “Cell viability with supplement of PG” value ([16]; A549, 100 μM) was “almost two-fold restored”. For the same compound, the “Kinetic mode (on/off rate)” value [17] was “fast on/off rate”, the Kd [17] was 55.7 µM and the “Response with MBP” value [18] was “no does-dependent response”. It also gave an IC50 [19, 30] of 64.7 ± 9.3 µM, an IC50 [19, 31] of 53.4 ± 2.4 µM and an IC50 ([19]; Homo sapiens, NCI-H460, 72 h, read-out: Cytotoxicity IC50) of 45.1 ± 0.4 µM. It also gave an IC50 [19, 32] of 40.5 ± 0.9 µM.

For `CC(=O)OCC1OC(OC(C)(CCC=C(C)C)C2CCC3(C)C2C(OC(C)=O)CC2C4(C)CCC(OC(C)=O)C(C)(C)C4CCC23C)C(OC(C)=O)C(OC(C)=O)C1OC(C)=O` (centres unmarked) [CKD-1], the Solubility [20] was “poor solubility” and the IC50 ([19]; read-out: Cytotoxicity IC50, NCI-H460 cells, 48 h (Table 2)) was over 100 µM.

In the case of `COc1ccc(C2OCC3OC(OC(C)(CCC=C(C)C)C4CCC5(C)C4C(O)CC4C6(C)CCC(O)C(C)(C)C6CCC45C)C(O)C(O)C3O2)cc1` (centres unmarked) [CKD-4], the IC50 [5, 24] is reported as 30.8 ± 3.7 µM, the IC50 [5, 25] is reported as 23.9 ± 0.9 µM and the IC50 [5, 26] is reported as 17.4 ± 1.2 µM. For the same compound, the IC50 [6, 27] was 43.7 ± 4.4 µM, the IC50 [6, 28] was 25.1 ± 1.5 µM and the IC50 [6, 29] was 20.3 ± 1.1 µM. For the same compound, the IC50 ([7]; 24 h, read-out: IC50 24 h) was 57.5 ± 0.6 µM, the IC50 ([7]; 48 h, read-out: IC50 48 h) was 25.9 ± 4.4 µM and the IC50 ([7]; 72 h, read-out: IC50 72 h) was 17.9 ± 2.8 µM. The “Amount of CK found in CKD-4 treated cells” value ([21]; 4 h) was 1.33 % of total amount of CKD-4, the “Amount of CK found in CKD-4 treated cells” value ([21]; 24 h) was 1.05 % of total amount of CKD-4 and the “Percentage of apoptotic cells” value ([8]; A549, 20 μM) was “significant increase in the percentage of apoptotic cells”. For the same compound, the Formation of tube ([9]; 15 μM) was “inhibition is more obvious”, the “Suppression of cell viability” value ([22]; 20 μM, CellTiterGlo) was “less than 30%” and the “Growth of patient derived organoid” value ([22]; 5, 10, 20, 35 and 50 μM) was “significantly inhibits the growth of patient derived organoid in a dose dependent manner”. The Body weight [10] was “No significant change in body weight”, the Tumor volume [10] was “significant tumor volume inhibition” and the “PRELID1 stability in PISA” value [11] was “stabilized”. For the same compound, the “Thermal stability of PRELID3b (CETSA)” value ([12]; 15 uM) was “stabilization”, the “Thermal stability of PRELID1 (CETSA)” value ([13]; 15 μM) was “stabilization” and the “Amount of mitochondrial cardiolipin” value [14] was “decreased significantly”. For the same compound, the “Level of cytochrome c in cytosol” value ([15]; 15 μM) was “dramatically enhanced”, the “Cytochrome c release with PG in medium” value ([15]; 15 μM) was “Reduced level of cytochrome c was released” and the “Cell viability with supplement of PG” value ([16]; A549, 12.5 μM) was “almost two-fold restored”. For the same compound, the “Kd smaller than Kd of CK” value [17] was about 7 fold, the “Kinetic mode (on/off rate)” value [17] was “slower” and the Kd [17] was 5.3 µM. The “Response with MBP” value [18] was “no does-dependent response”, the “Cytotoxic potency in comparison with CK” value [23] was “three-fold more potent” and the IC50 [19, 30] was 23.3 ± 1.4 µM. The IC50 [19, 31] was 16.5 µM and the IC50 [19, 32] was 15.4 ± 0.1 µM.

From patent US20230381213A1, “SYNTHESIS AND USES OF GINSENOSIDE COMPOUND K DERIVATIVES” (The University of Hong Kong, priority 2022, published 2023)
